These are literature values, as cited in patent publication US20210154161A1, “MODIFIED-RELEASE BUCILLAMINE COMPOSITIONS, KITS, AND METHODS FOR TREATING CYSTINURIA, ARTHRITIS, GOUT, AND RELATED DISORDERS” (ALTIBIO, INC., priority 2017, published 2021).

The conditions of series [1]: cited from earlier work.
For series [2] the following is noted: cystinuria patients; cited from earlier work.
The conditions of series [3]: cited from earlier work. This is another data set of the same source.
The conditions of series [4]: cited from earlier work. This is another data set of the same source.

Each structure is given as a SMILES string. A value given as a limit tells only on which side of the number the result lay.

As for `CC(C)(S)[C@@H](N)C(=O)O` [D-penicillamine], the “solubility of the di-sulfide complex formed, relative to cystine” value in series [1] was 50 times. In addition, the “patients with severe side effects / who cannot tolerate the drug” value in series [2] is 50-70%.

`CC(S)C(=O)NCC(=O)O` (stereo not drawn) [tiopronin, alpha-mercaptopropionylglycine]: in series [3] (immediate-release tiopronin, oral), the “time of primary urine excretion wave after oral administration” value was 3 to 4 h. Besides, the “time after administration at which urine excretion of free tiopronin and mixed-sulfide tiopronin mostly occurs” value in series [3] (in vivo) is 2 to 4 h. Further, the “free tiopronin excreted in urine within 2 hours of administration” value in series [3] (within 2 hours of Thiola administration) is at most 95%. In addition, the “cases/patients in which the drug is discontinued” value in series [4] (due to adverse reactions, need for frequent dosing, poor efficacy) is “about 30%”. In series [4] (human, in vivo), the “cystinuria patients failed by the medication (continue forming stones)” value is 85%; the “patients who achieve and maintain therapeutic success” value was 15%; the “period of effectiveness in reducing cystine urine levels” value was 2 to 4 h.
